# Experimental data published in patent publication US5777190A (priority 1997, dated 1998).
# Assays:
# [1] = molecular target: ferredoxin NADP oxidoreductase (FNR, EC 1.18.1.2) from spinach (Spinacia oleracea, UniProt P00455)
# rats = conditions: rat, in vivo; cited from earlier work
# Chain of ferredoxin NADP oxidoreductase (FNR, EC 1.18.1.2) from spinach (P00455 56-369): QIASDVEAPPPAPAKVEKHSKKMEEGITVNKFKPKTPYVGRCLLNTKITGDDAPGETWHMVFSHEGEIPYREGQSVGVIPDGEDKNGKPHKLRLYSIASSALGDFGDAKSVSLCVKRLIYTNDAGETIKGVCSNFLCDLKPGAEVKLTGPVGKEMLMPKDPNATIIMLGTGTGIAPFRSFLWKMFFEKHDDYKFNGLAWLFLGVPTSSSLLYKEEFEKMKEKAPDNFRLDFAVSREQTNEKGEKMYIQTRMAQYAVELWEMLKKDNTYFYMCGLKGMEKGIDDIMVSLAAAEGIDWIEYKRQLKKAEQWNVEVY
smiles,measurement,setting,value
O=[N+]([O-])c1ccccc1 [nitrobenzene],reduction by FNR under aerobic conditions,[1],not reduced
same,stoichiometry of transformation by FNR,[1],One mole of PHA is formed for every mole of nitrobenzene
same,reduction by FNR under nitrogen (product formed),[1]; pH 8.5,transformation of nitrobenzene to PHA by FNR
same,LD50,rats,640 mg/kg
